Laboratory results as given in patent US6391549B1, “Monitoring gene expression” (Ramont University Authority for Applied Research & …, priority 1999, dated 2002).

Tests used:
β-galactosidase = β-galactosidase (Escherichia coli, UniProt P00722); conditions: purified enzyme, PAPG substrate, 220 mV
Description: The amperometric assay. Electrochemical measurements were performed using a disposable three-electrode cell, based on a screen-printed electrode (total volume of 0.3 ml). […] Graphite ink was used as the counter electrode and Ag/AgCl ink were the reference electrodes. Disposable graphite electrodes in cylindrical form (made from pencil leads, HB 0.9 mm) were used as the working electrodes. The assay was performed directly in the electrochemical cells which were vibrated to achieve mixing. The same screen-printed electrodes and graphite working electrode were also used for direct measurements in cultures. In this case the electrodes were placed inside the Erlenmeyer flask as shown in FIG. 1 and mixing was achieved by bubbling air. The graphite electrode was held at 220 mV versus the reference electrode and the substrate PAPG concentration was 0.4 mg/ml.
The electrochemical measurements were performed using a PAR VersaStat potentiostat connected to 8 channel PAR 314 Model multiplexer (EG&C Princeton Applied Research, Princeton, N.J.). This system allows simultaneous measurements of eight samples with disposable electrochemical cells. The measurements were controlled by a LAbVIEW-based software using a Windows 95 operating system. […]

[1] = tested on: heavy metal responsive promoter-lacZ fusion in E coli K12 MC4100; conditions: HgCl2 10, 50, 100 and 500 PPM added to sea-water, FIG. 7
Description: Electrochemical measurements was performed using a disposable three-electrode cell made of polystyrene tubes and based on a screen-printed electrode (total volume of 0.3 ml). The assay was performed directly in the electrochemical cells that was vibrated to achieve mixing. This system allows simultaneous measurements of eight samples using a potentiostat connected to 8 channel multiplexer. The electrical current, resulting in all 8 cultures, from the activity of β-galactosidase, was visualized in real time on the computer screen. The on-line monitoring procedure was performed as followed:
The game procedure as described on Example 4 was used to monitor mercury in water and sea water samples.

[2] = tested on: E. coli K10 cultures (lacZ expression); assay: on-line amperometric monitoring of lacZ product β-galactosidase in intact bacteria after IPTG induction; assay type: cell-based
Description: Bacterial strains and growth. E. coli K-12 strain K10 (Hfr, tonA22, ompF626, relA1, pit10, spoT1, T2^R CGSC [Coli Genetic Stot Center, New Haven, Conn.] 4234) was from the lab collection, Strains E. coli RO151 (MC4100 φ(csi-5::lacZ) and E. coli RH99 (RO151 rpoS359::Tn10) were described before (Weichart et. al., 1993). All cultures were grown aerobically at 37° C. with vigorous shaking in LB media (Miler, 1992), supplemented, when required, with 5 μg/ml of tetracycline or 25 μg/ml of kanamycin.
An on-line electroanalytical assay for β-galactosidase was used where the enzymatic activity was determined following induction with IPTG. Increasing concentrations of the inducer were added to cultures of E. coli K10 (Annette & Anthony, 1987) and the current signal was monitored on-line in all the cultures simultaneously (FIG. 3A).

[3] = tested on: E. coil k-12 7118 carrying pUC-PhoA plasmid (lacZ promoter-phoA); assay: on-line amperometric monitoring of phoA product alkaline phosphatase under lacZ promoter in intact bacteria; assay type: cell-based, E. coli; conditions: IPTG 0, 0.1 mM and 1 mM, FIG. 10
Source text: The expression of the enzyme AP was done by constructing a multicopy plasmid. For the construction of the plasmid, we coupled a promoter-less phoA gene to the promoter of the lacZ gene. The use of multicopy plasmid as a vector for induciable genes requires a strong repressing system to prevent constitutive expression. Therefore we used a plasmid that cares the lacI^q gene coding for a lacZ strong repressor. The plasmid was designed to generate the correct fusion between the lacZ promoter and the phoA gene. The bacteria carrying this plasmid can be immobilized and used to monitor AP by electrochemical measurements of it's activity. After the construction of the plasmid, we measured AP activity of a cell suspension in response to the appearance of IPTG.
Strain E. coil k-12 7118[F′ lacI^qΔ(lacZ)M15 proA+B+/Δ(lac-proAB) thi supE]was used for all cloning procedures, plasmid propagation and production. AP production of cells carrying the pUC-PhoA plasmid was measured on-line by the electroanalytical technique that was used for β-galactosidase as described in example 2. As shown in FIG. 10 the enzymatic activity was determined following induction with elevated concentrations of IPTG (0, 1 mM and 0.1 mM).

[4] = tested on: heavy metal responsive promoter-lacZ fusion in E coli K12 MC4100; assay: on-line amperometric monitoring of heavy metals with bacteria carrying heavy metal responsive promoter fused to lacZ; assay type: cell-based; conditions: CdCl2 5, 10 and 50 PPM added to culture, FIG. 5
Description: An on-line electroanlytical assays for β-galactosidase was used to monitor on-line the presence of heavy metals. The expression of the reporter gene β-galactosidase that was fused to a heavy metal responsive gene was proportional to the heavy metal concentration. We were able to monitor eight different samples simultaneously using a disposable electrodes.
(§1) The on-line monitoring procedure was performed as followed:
a. The bacteria culture was grown on LB medium to a density of 40 K.U.
b. The culture was added to the multiple-cell device followed by the addition of the β-galactosidase substrate p-aminophenyl-b-D-galactopyranoside (PAPG).
c. A potential of 220 mV Vs Ag/AgCl reference electrode was applied by the electrochemical measurement system and electroanalytical assay for β-galactosidase was carried out as described in Example 4.
The current signal was monitored simultaneously in all the cultures.

[5] = tested on: heavy metal responsive promoter-lacZ fusion in E coli K12 MC4100; assay: on-line monitoring of cadmium in soil samples with the reporter bacteria; assay type: cell-based
Description: as §1
The same assay procedure was used to detect cadmium in soil samples. The soil was added directly to the screen-printed based electrochemical cells containing the bacteria culture as described above. Eight soil samples were monitored simultaneously by the system. The results as visualized on the computer screen are shown on FIG. 6A., Two duplicates of soil sample containing 3.8 PPM cadmium (measured by the Atomic absorption method) were compared with two duplicates of clean soil samples.

Chain of β-galactosidase (P00722 2-1024 limits assumed): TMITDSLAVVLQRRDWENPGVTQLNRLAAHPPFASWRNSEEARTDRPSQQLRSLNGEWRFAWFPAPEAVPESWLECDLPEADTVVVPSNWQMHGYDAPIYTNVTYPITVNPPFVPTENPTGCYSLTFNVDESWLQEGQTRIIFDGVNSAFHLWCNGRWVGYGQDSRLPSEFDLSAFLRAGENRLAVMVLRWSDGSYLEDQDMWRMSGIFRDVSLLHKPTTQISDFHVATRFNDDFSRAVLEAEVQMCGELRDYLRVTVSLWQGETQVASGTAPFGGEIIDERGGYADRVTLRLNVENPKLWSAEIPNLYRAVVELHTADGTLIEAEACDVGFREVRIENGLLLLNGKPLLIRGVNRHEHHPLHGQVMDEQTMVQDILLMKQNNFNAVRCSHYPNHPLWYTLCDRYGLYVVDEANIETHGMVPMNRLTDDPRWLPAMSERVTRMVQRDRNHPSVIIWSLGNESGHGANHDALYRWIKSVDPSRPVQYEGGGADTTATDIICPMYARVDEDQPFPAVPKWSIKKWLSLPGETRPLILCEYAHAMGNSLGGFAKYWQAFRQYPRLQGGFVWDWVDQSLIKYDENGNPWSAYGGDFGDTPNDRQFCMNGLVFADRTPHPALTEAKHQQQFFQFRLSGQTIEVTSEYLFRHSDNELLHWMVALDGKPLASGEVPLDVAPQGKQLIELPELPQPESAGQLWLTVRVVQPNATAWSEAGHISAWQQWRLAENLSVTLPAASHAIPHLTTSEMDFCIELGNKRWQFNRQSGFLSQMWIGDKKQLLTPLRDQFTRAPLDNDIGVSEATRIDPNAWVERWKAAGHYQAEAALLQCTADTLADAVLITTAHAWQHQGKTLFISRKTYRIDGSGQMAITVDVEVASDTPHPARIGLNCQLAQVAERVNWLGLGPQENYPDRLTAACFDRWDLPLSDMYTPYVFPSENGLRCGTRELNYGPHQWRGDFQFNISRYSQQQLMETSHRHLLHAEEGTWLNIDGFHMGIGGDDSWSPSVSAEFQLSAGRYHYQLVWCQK

“β-D-galactoside galatohydrolase; EC 3.2.1.23 [β-galactosidase]” was tested, and the detection limit (β-galactosidase) was 1 unit/ml.

HgCl2 was tested, and the “current signal (reporter induction)” value [1] was “proportional to the mercury concentrations”.

With `CC(C)S[C@@H]1O[C@H](CO)[C@H](O)[C@H](O)[C@H]1O` [IPTG, isopropyl-β-D-thiogalactopyranoside] the “lowest IPTG concentration from which the slope was proportional” value ([2]; E. coli K10, FIG. 3B) was at least 0.5 µM, the “slope of the current signals with time (β-galactosidase induction)” value ([2]; E. coli K10, IPTG 0.5-50 μM, FIG. 3B) was “proportional to the concentrations of IPTG added” and the “current signals (alkaline phosphatase activity after induction)” value [3] was “proportional to IPTG concentations”.

`[Cl][Cd][Cl]` [cadmium, CdCl2] was tested, and the “slope of the current signals with time (reporter induction)” value [4] was “proportional to the concentrations of cadmium added”, the “current signals versus clean soil samples” value ([5]; soil sample containing 3.8 PPM cadmium, FIG. 6) was “substantially higher” and the “lowest cadmium concentration detected in soil samples” value ([5]; soil samples, average of several experiments, FIG. 6B) was 0.5 PPM.
